{
  "source": "patent US8946190B2",
  "about": "“Medium-chain length fatty acids, salts and triglycerides in combination with gemcitabine for treatment of pancreatic cancer” (priority 2007, dated 2015)",
  "key": {"Panc02 cells": {"system": "Panc02 cells", "test": "In vitro cytotoxicity (MTT) on pancreatic cancer cells", "format": "cell-based", "conditions": "Mus musculus, 24 h cell culture", "experimental": "This assay was performed to determine the effect of compounds of the present invention on cell cytotoxicity. Panc02 cells were incubated in presence or absence of compounds in RPMI-1640 conditioned media. After 24 hours incubation, 50 μl of 3-(4,5-dimethyl-2-thiazyl)-2,5-diphenyl-2H-tetrazolium bromide ([…]; 2 mg/ml) was added and further incubated for 4 hours. The supernatant was discarded and 100 μl of dimethylsulfoxide (DMSO) was added. Absorbance was read at 570 nm with an ELISA Tecan Sunrise plate reader. The control group consisted of cells without compounds and is referred to as 100% of viable cells. IC50 was determined using Prism software."}, "[1]": {"system": "syngeneic Panc02 pancreas tumor", "test": "Panc02 mouse pancreatic cancer model, intradermal syngeneic tumor growth", "format": "in vivo, C57BL/6 mice", "conditions": "for anticancer activity in the early phase of the treatment: given alone", "experimental": "The syngeneic Panc02 is a pancreatic adenocarcinoma tumor cell line obtained from NCI (0507232). Panc02 cells are positive for Ki-Ras, p53, HerNEU and CDK. Panc02 were grown in RPMI-1640 containing 10% fetal bovine serum. At day 0, 50 μl of 7.5×10^5 viable Panc02 cells were intradermally injected to produce localized tumors in 6- to 8-week old C57BL/6 mice. The animals were then serially monitored by manual palpation for evidence of tumor. Mice were then treated every day with oral administration of vehicle (negative control), or sodium decanoate and with intraperitoneal injection of gemcitabine (50 mg/kg) at day 21, 28, 35 and 42. Mice were sacrificed between days 36 to 50. Serial tumor volume was obtained by bi-dimensional diameter measurements with calipers, using the formula 0.4 (a×b^2) where “a” was the major tumor diameter and “b” the minor perpendicular diameter. Tumors were palpable, in general, 3-5 days post-inoculation. Percentage of tumor growth is reported as the percentage of growth of the pancreatic tumor on a given day relative to that growth which is observed on the first day of treatment with medium-chain length fatty acid, or sodium salt or triglyceride or vehicle (control). T/C is defined as: Treated Tumor Growth CYO/Control Tumor Growth (%).\nThe effect of sodium dodecanoate and gemcitabine in pancreatic Panc02 cancer was determined as described in Example 2."}, "[2]": {"system": "syngeneic Panc02 pancreas tumor", "test": "Panc02 mouse pancreatic cancer model, intradermal syngeneic tumor growth", "format": "in vivo, C57BL/6 mice"}, "[3]": {"system": "metastatic pancreatic cancer", "conditions": "pancreatic cancer patients after metastasis; cited from earlier work"}, "[4]": {"system": "orthotopic syngeneic Panc02 pancreatic tumor", "test": "Panc02 mouse orthotopic pancreatic cancer model, survival", "format": "in vivo, C57BL/6 mice", "design": "% Survival: concentration or dose not given beside the values", "conditions": "for % Survival: Table 2", "experimental": "At day 0, 50 μl of 1×10^6 viable Panc02 cells per ml were injected onto the pancreas to produce orthotopic tumors in 6- to 8-week old C57BL/6 mice. Mice were then treated every day with oral administration of vehicle (negative control), or sodium decanoate and with intraperitoneal injection of gemcitabine (50 mg/kg) once a week (day 1, 8, 15, etc.).\nThe effect of gemcitabine and tricaprin in combination with gemcitabine in orthotopic pancreatic Panc02 cancer was determined as described in Example 3."}},
  "note": "pIC50: −log10 of the molar value.",
  "data": [
    {"smiles": "CCCCCCCCCC(=O)O", "note": "[Decanoic acid]", "values": [
      {"measurement": "pIC50", "setting": "Panc02 cells", "result": 3.20}
    ]},
    {"smiles": "Nc1ccn([C@@H]2O[C@H](CO)[C@@H](O)C2(F)F)c(=O)n1", "note": "[Gemcitabine]", "values": [
      {"measurement": "inhibition of tumor growth (p<0.05)", "setting": "[1]; FIG. 1, gemcitabine 50 mg/kg, day 27 to 34", "result": "significant inhibition"},
      {"measurement": "inhibition of tumor growth (p<0.05)", "setting": "[1]; FIG. 2, gemcitabine alone, day 23 to 37", "result": "significant (p<0.05) inhibition"},
      {"measurement": "anticancer activity in the early phase of the treatment", "setting": "[1]; FIG. 3", "result": "did not display anticancer activities"},
      {"measurement": "anticancer activity in the early phase of the treatment", "setting": "[1]; FIG. 4", "result": "did not display anticancer activities"},
      {"measurement": "inhibition of tumor growth (p<0.05)", "setting": "[1]; FIG. 6, gemcitabine 50 mg/kg, day 44", "result": "significant inhibition"},
      {"measurement": "mortality", "setting": "[1]; increased concentration of gemcitabine", "result": "mortality is observed"},
      {"measurement": "T/C", "setting": "[2]; FIG. 3, gemcitabine 25 mg/kg alone", "result": "> 40"},
      {"measurement": "inhibition of tumor growth (p<0.05)", "setting": "[2]; FIG. 3, gemcitabine 25 mg/kg, day 39", "result": "significant inhibition"},
      {"measurement": "T/C", "setting": "[2]; FIG. 4, gemcitabine 10 mg/kg alone", "result": "no T/C<40"},
      {"measurement": "inhibition of tumor growth (p<0.05)", "setting": "[2]; FIG. 4, gemcitabine 10 mg/kg, day 41", "result": "significant inhibition"},
      {"measurement": "one-year survival", "setting": "[3]", "result": 18, "unit": "%"},
      {"measurement": "survival compared with mice that had received vehicle", "setting": "[4]; FIG. 5", "result": "prolonged survival"},
      {"measurement": "Median survival", "setting": "[4]; FIG. 5, gemcitabine 50 mg/kg once a week, sodium decanoate oral 200 mg/kg every day", "result": 71, "unit": "days"},
      {"measurement": "survival compared with mice that had received vehicle", "setting": "[4]; FIG. 7", "result": "prolonged survival"},
      {"measurement": "Median survival", "setting": "[4]; FIG. 7, gemcitabine 50 mg/kg, tricaprin oral 600 mg/kg", "result": 53.5, "unit": "days"},
      {"measurement": "% Survival", "setting": "[4]; day 58", "result": 86, "unit": "%"},
      {"measurement": "% Survival", "setting": "[4]; day 72", "result": 42, "unit": "%"},
      {"measurement": "% Survival", "setting": "[4]; day 83", "result": 28, "unit": "%"},
      {"measurement": "% Survival", "setting": "[4]; day 87", "result": 14, "unit": "%"},
      {"measurement": "% Survival", "setting": "[4]; day 92", "result": 0, "unit": "%"},
      {"measurement": "% Survival", "setting": "[4]; day 92, listed as gemcitabine", "result": "all mice are dead"}
    ]},
    {"smiles": "CCCCCCCCCC(=O)[O-].[Na+]", "note": "[PBI-1402]", "values": [
      {"measurement": "anticancer activity in the early phase of the treatment", "setting": "[1]; FIG. 3", "result": "did not display anticancer activities"},
      {"measurement": "anticancer activity in the early phase of the treatment", "setting": "[1]; FIG. 4", "result": "did not display anticancer activities"}
    ]},
    {"smiles": "CCCCCCCCCC(=O)[O-].[Na+]", "note": "[Sodium decanoate]", "values": [
      {"measurement": "inhibition of tumor growth (p<0.05)", "setting": "[1]; FIG. 1, sodium decanoate oral 100 mg/kg, day 23 to 44", "result": "significant inhibition"},
      {"measurement": "tumor growth inhibition compared to control (p<0.05)", "setting": "[1]; FIG. 2, sodium decanoate 400 mg/kg, day 23 to 37", "result": "significant"},
      {"measurement": "inhibition of tumor growth (p<0.05)", "setting": "[1]; FIG. 2, sodium decanoate oral 100, 200 and 400 mg/kg", "result": "significant (p<0.05) inhibition of the tumor growth in a dose dependent fashion"},
      {"measurement": "pIC50", "setting": "Panc02 cells", "result": 3.28}
    ]},
    {"smiles": "CCCCCCCCCCCC(=O)[O-].[Na+]", "note": "[Sodium dodecanoate]", "values": [
      {"measurement": "inhibition of tumor growth (p<0.05)", "setting": "[1]; FIG. 6, sodium dodecanoate oral 200 mg/kg, day 44", "result": "significant inhibition"},
      {"measurement": "pIC50", "setting": "Panc02 cells", "result": 3.82}
    ]}
  ]
}
